Assay results taken from US9856298B2 (priority 2011, dated 2018).
Converted amounts (≈) assume the structure as drawn. Like-named read-outs stand apart in the source and are kept apart here. Numbered stars: 1 amine (or outer) side, 2 acyl side, 3 side chain; on linkers, the order of the positions; unused ones are H or OH. Square brackets hold non-standard residues; d marks the D form. Primed or numbered codes have the meaning given here. Peptide text beside a SMILES is read from it. * marks the point of attachment. δOrn(α-TMG) = CN(C)C(=N[C@@H](CCCN[*:1])C(=O)[*:2])N(C)C; Guan″ = guanidino group at the N-terminus, N=C(N)*; tPEG5000 = PEG of 5000 linked via thiol group; Guan = N-guanidino (N-terminal), N=C(N)*; Hyp = O=C(O)[C@@H]1C[C@@H](O)CN1; Tle = CC(C)(C)[C@H](N)C(=O)O; Orn = NCCC[C@H](N)C(=O)O

Columns and labels:
mouse serum (100%) = conditions: 37° C., up to 6 hours
[1] = system: Escherichia coli strain BL21AI; assay: Minimum inhibitory concentration in 1% TSB; type: cell-based; conditions: for MIC in TSB: E. coli BL21AI, 1% TSB, 20 hours at 37° C.
Experimental: To that end, the peptides were dissolved in water and diluted in a two-fold dilution series with 1% aqueous soybean medium (TSB) in sterile 96-well plates (Greiner Bio-One GmbH) from 128 μg/ml in twelve dilution steps to 62.5 ng/ml. Overnight cultures of Escherichia coli strain BL21AI were adjusted with 1% TSB to about […] colony forming units per ml. In each case 50 μl of peptide solution per well were then mixed with in each case 50 μl of the bacteria solution, in order to achieve a starting concentration of 4×10^5 bacteria per well. After incubation for 20 hours at 37° C., the absorption at 595 nm was determined (microplate reader, TECAN Trading AG).

[2] = mouse; for uncleaved peptide remaining after the indicated time (instead of half-life): serum, 15 µg/ml
Experimental: 30 μl of a 1 mg/ml peptide solution were diluted with 120 μl of water and, after addition of 50 of serum, incubated at 37° C. for 0 hours, 0.5 hour, 1 hour, 2 hours or 4 hours. Alternatively, the peptide derivatives having a starting concentration of 3 mg/ml were diluted with serum to a final concentration of 15 μg/ml. According to the stability of the peptides, the samples were analysed at the times mentioned above or after 0 hours, 4 hours and 6 hours. The serum proteins were precipitated by addition of 50 μl of 15% TCA, and the supernatant was neutralised with 25 μl of 1 mol/l NaOH. The samples were made up to 250 μl with 5% B, 230 μl of the solution were transferred into a HPLC vial, and 220 μl were injected.
RP-HPLC analysis was carried out with a linear acetonitrile gradient (Biosolve BV, Valkenswaard, Netherlands) in the presence of 0.1% trifluoroacetic acid (TFA, UV grade, Fluka Chemie GmbH, Buchs, Switzerland) as ion-pair reagent. The fractions were co-crystallised with α-cyanohydroxycinnamic acid (Bruker Daltonik GmbH; Bremen, Germany) as matrix (4 mg/ml in 60% acetonitrile in 0.1% aqueous TFA) and analysed with a tandem mass spectrometer (MALDI-TOF/TOF-MS, 4700 Proteomics Analyzer; Applied Biosystems GmbH, Weiterstadt, Germany) in positive-ion reflector mode. The amount of intact peptides and their degradation products or metabolites could thus be identified and quantified at the individual times. 25% aqueous mouse serum, which was analysed in parallel for the same time intervals, was used as control.

| cleaved bond (mouse serum (100%)) | Compound | MIC in TSB [1] [µM] | also measured |
| --- | --- | --- | --- |
| R-S | Guan-ONO(tPEG^5000-GRSG)RPVYIPRPRPPHPRL-OH | – | – |
| R-V | sPEG^750-GAR-VDKPPYLPRPRPPROIYNO-NH2 | – | – |
| R-S | Guan-ONO(tPEG^5000-GAARSG)RPVYIPRPRPPHPRL-OH | – | – |
| R-S | Guan-OO(tPEG^750-GAARSG)NRPVYIPRPRPPHPRL-OH | – | – |
| R-S | Guan-OO(sPEG^750-GRSG)NRPVYIPRPRPPHPRL-OH | – | – |
| R-S | Guan-ONO(sPEG^750-GRSG)RPVYIPRPRPPHPRL-OH | – | – |
| R-S | Guan-ONO(sPEG^750-GAARSG)RPVYIPRPRPPHPRL-OH | – | – |
| R-S | Guan-ONO(tPEG^5000-GARSG)RPVYIPRPRPPHPRL-OH | – | – |
| R-S | Guan-ONO(tPEG^750-GARSG)RPVYIPRPRPPHPRL-OH | – | – |
| R-S | Guan-OO(tPEG^5000-GARSG)NRPVYIPRPRPPHPRL-OH | – | – |
| R-S | Guan-ONO(tPEG^750-GAARSG)RPVYIPRPRPPHPRL-OH | – | – |
| R-V | tPEG^5000-GAR-VDKPPYLPRPRPPROIYNO-NH2 | – | – |
| R-S | Guan-OO(sPEG^750-GAARSG)NRPVYIPRPRPPHPRL-OH | – | – |
| R-S | Guan-OO(sPEG^750-GARSG)NRPVYIPRPRPPHPRL-OH | – | – |
| R-V | tPEG^750-GAR-VDKPPYLPRPRPHypRHypTleYNO-NH2 | – | – |
| R-S | Guan-OO(tPEG^750-GARSG)NRPVYIPRPRPPHPRL-OH | – | – |
| R-V | tPEG^750-GAR-VDKPPYLPRPRPPROIYNO-NH2 | – | – |
| R-S | Guan-OO(tPEG^750-GRSG)NRPVYIPRPRPPHPRL-OH | – | – |
| R-S | Guan-OO(tPEG^5000-GAARSG)NRPVYIPRPRPPHPRL-OH | – | – |
| R-S | Guan-OO(tPEG^5000-GRSG)NRPVYIPRPRPPHPRL-OH | – | – |

The remaining lines, values behind:

| Compound | cleaved bond (mouse serum (100%)) | MIC in TSB [1] [µM] | also measured |
| --- | --- | --- | --- |
| Guan-ONO(sPEG^750-GARSG)RPVYIPRPRPPHPRL-OH | R-S | – | – |
| Guan-ONO(sPEG^750-GRSG)RPVYIPRPRPPHPRL-OH ({Guan″}-[Orn]N[Orn]RPVYIPRPRPPHPRL-OH; not fully specified (residue 3)) [Api 301 (sPEG^750-GRSG)] | – | 1.5 | Half-life (t1/2) in serum [2]: 30 min |
| CC(C)C[C@H](NC(=O)[C@H](Cc1ccc(O)cc1)NC(=O)[C@@H]1CCCN1C(=O)[C@@H]1CCCN1C(=O)[C@H](CCCCN)NC(=O)[C@H](CC(=O)O)NC(=O)[C@@H](N)C(C)C)C(=O)N1CCC[C@H]1C(=O)N[C@@H](CCCNC(=N)N)C(=O)N1CCC[C@H]1C(=O)N[C@@H](CCCNC(=N)N)C(=O)N1CCC[C@H]1C(=O)N1C[C@H](O)C[C@H]1C(=O)N[C@@H](CCCNC(=N)N)C(=O)N1C[C@H](O)C[C@H]1C(=O)N[C@H](C(=O)N[C@@H](Cc1ccc(O)cc1)C(=O)N[C@@H](CC(N)=O)C(=O)N[C@@H](CCCN)C(N)=O)C(C)(C)C [Onc 110] (H-VDKPPYLPRPRP[Hyp]R[Hyp][Tle]YN[Orn]-NH2) | – | 6.9 (≈ 16 µg/mL) | – |
| Guan-OO(tPEG^750-GAARSG)NRPVYIPRPRPPHPRL-OH (Guan-[Orn][Orn]NRPVYIPRPRPPHPRL-OH; not fully specified (residue 2)) [Api 300 (tPEG^750-GAARSG)] | – | 2.8 | Half-life (t1/2) in serum [2]: 35 min |
| Guan-OO(tPEG^5000-GAARSG)NRPVYIPRPRPPHPRL-OH (Guan-[Orn][Orn]NRPVYIPRPRPPHPRL-OH; not fully specified (residue 2)) [Api 300 (tPEG^5000-GAARSG)] | – | 25.4 | uncleaved peptide remaining after the indicated time (instead of half-life) ([2]; 6 h): 76% |
| Guan-ONO(tPEG^5000-GRSG)RPVYIPRPRPPHPRL-OH ({Guan″}-[Orn]N[Orn]RPVYIPRPRPPHPRL-OH; not fully specified (residue 3)) [Api 301 (tPEG^5000-GRSG)] | – | >38 | uncleaved peptide remaining after the indicated time (instead of half-life) ([2]; 6 h): 75% |
| Guan-OO(tPEG^750-GRSG)NRPVYIPRPRPPHPRL-OH (Guan-[Orn][Orn]NRPVYIPRPRPPHPRL-OH; not fully specified (residue 2)) [Api 300 (tPEG^750-GRSG)] | – | 2.9 | Half-life (t1/2) in serum [2]: 40 min |
| Guan-ONO(tPEG^750-GAARSG)RPVYIPRPRPPHPRL-OH ({Guan″}-[Orn]N[Orn]RPVYIPRPRPPHPRL-OH; not fully specified (residue 3)) [Api 301 (tPEG^750-GAARSG)] | – | 2.8 | Half-life (t1/2) in serum [2]: 50 min |
| Guan-ONO(tPEG^5000-GARSG)RPVYIPRPRPPHPRL-OH ({Guan″}-[Orn]N[Orn]RPVYIPRPRPPHPRL-OH; not fully specified (residue 3)) [Api 301 (tPEG^5000-GARSG)] | – | 9.2 | uncleaved peptide remaining after the indicated time (instead of half-life) ([2]; 6 h): 62% |
| sPEG^750-GAR-VDKPPYLPRPRPHypRHypTleYNO-NH2 | R-V | – | – |
| Guan-ONO(sPEG^750-GAARSG)RPVYIPRPRPPHPRL-OH ({Guan″}-[Orn]N[Orn]RPVYIPRPRPPHPRL-OH; not fully specified (residue 3)) [Api 301 (sPEG^750-GAARSG)] | – | 5.6 | Half-life (t1/2) in serum [2]: 55 min |
| Guan-OO(sPEG^750-GAARSG)NRPVYIPRPRPPHPRL-OH (Guan-[Orn][Orn]NRPVYIPRPRPPHPRL-OH; not fully specified (residue 2)) [Api 300 (sPEG^750-GAARSG)] | – | 2.8 | Half-life (t1/2) in serum [2]: 45 min |
| Guan-ONO(tPEG^750-GRSG)RPVYIPRPRPPHPRL-OH (Guan-[Orn]N[Orn]RPVYIPRPRPPHPRL-OH; not fully specified (residue 3)) [Api 301 (tPEG^750-GRSG)] | – | 2.9 | Half-life (t1/2) in serum [2]: 55 min |
| Guan-ONO(tPEG^750-GRSG)RPVYIPRPRPPHPRL-OH | R-S | – | – |
| Guan-O(sPEG^5000-GARSG)NNRPVYIPRPRPPHPRL-OH ({Guan″}-[Orn]NNRPVYIPRPRPPHPRL-OH; not fully specified (residue 1)) [Api 137 (sPEG^5000-GARSG)] | – | 3.7 | – |
| Guan-OO(tPEG^5000-GRSG)NRPVYIPRPRPPHPRL-OH (Guan-[Orn][Orn]NRPVYIPRPRPPHPRL-OH; not fully specified (residue 2)) [Api 300 (tPEG^5000-GRSG)] | – | >44.8 | uncleaved peptide remaining after the indicated time (instead of half-life) ([2]; 6 h): 75% |
| Guan-O(sPEG^20000-GARSG)NNRPVYIPRPRPPHPRL-OH ({Guan″}-[Orn]NNRPVYIPRPRPPHPRL-OH; not fully specified (residue 1)) [Api 137 (sPEG^20000-GARSG)] | – | 10.2 | – |
| tPEG^750-GAR-VDKPPYLPRPRPHypRHypTleYNO-NH2 (tPEG750-GARVDKPPYLPRPRP[Hyp]R[Hyp][Tle]YN[Orn]-NH2; not fully specified) [tPEG^750-GAR-Onc 110] | – | 48.4 | uncleaved peptide remaining after the indicated time (instead of half-life) ([2]; 6 h): 64% |
| CC[C@H](C)[C@H](NC(=O)[C@H](Cc1ccc(O)cc1)NC(=O)[C@@H](NC(=O)[C@@H]1CCCN1C(=O)[C@H](CCCNC(=N)N)NC(=O)[C@H](CC(N)=O)NC(=O)[C@H](CC(N)=O)NC(=O)[C@H](CCCNC(=O)CNC(=O)[C@@H](N)CO)N=C(N(C)C)N(C)C)C(C)C)C(=O)N1CCC[C@H]1C(=O)N[C@@H](CCCNC(=N)N)C(=O)N1CCC[C@H]1C(=O)N[C@@H](CCCNC(=N)N)C(=O)N1CCC[C@H]1C(=O)N1CCC[C@H]1C(=O)N[C@@H](Cc1c[nH]cn1)C(=O)N1CCC[C@H]1C(=O)N[C@@H](CCCNC(=N)N)C(=O)N[C@@H](CC(C)C)C(=O)O [Api 137 (SG)] (H-SG[δOrn(α-TMG)]NNRPVYIPRPRPPHPRL-OH) | – | 0.2 (≈ 0.487 µg/mL) | Effect of peptide linker or remaining linker residues on the MIC ([1]; compared with the unmodified peptide): does not increase the MIC or increases it only insignificantly |
| Guan-OO(tPEG^750-GARSG)NRPVYIPRPRPPHPRL-OH (Guan-[Orn][Orn]NRPVYIPRPRPPHPRL-OH; not fully specified (residue 2)) [Api 300 (tPEG^750-GARSG)] | – | 1.5 | Half-life (t1/2) in serum [2]: 45 min |
| Guan-ONO(tPEG^5000-GAARSG)RPVYIPRPRPPHPRL-OH ({Guan″}-[Orn]N[Orn]RPVYIPRPRPPHPRL-OH; not fully specified (residue 3)) [Api 301 (tPEG^5000-GAARSG)] | – | >47.5 | uncleaved peptide remaining after the indicated time (instead of half-life) ([2]; 5 h): 78% |
| tPEG^5000-GAR-VDKPPYLPRPRPHypRHypTleYNO-NH2 (tPEG5000-GARVDKPPYLPRPRP[Hyp]R[Hyp][Tle]YN[Orn]-NH2) [tPEG^5000-GAR-Onc 110] | – | – | uncleaved peptide remaining after the indicated time (instead of half-life) ([2]; 6 h): 96% |
| Guan-ONO(tPEG^750-GARSG)RPVYIPRPRPPHPRL-OH ({Guan″}-[Orn]N[Orn]RPVYIPRPRPPHPRL-OH; not fully specified (residue 3)) [Api 301 (tPEG^750-GARSG)] | – | 1.5 | Half-life (t1/2) in serum [2]: 45 min |
